Source: ChEMBL document CHEMBL1124142, “N6-[2-(3,5-dimethoxyphenyl)-2-(2-methylphenyl)ethyl]adenosine and its uronamide derivatives. Novel adenosine agonists with both high affinity and high selectivity for the adenosine A2 receptor” (J Med Chem, 1988)

Legend:
Adenosine A2 receptor [1] = target: T1, Adenosine A2 receptor (Rattus norvegicus, UniProt P29276+P30543)
Adenosine receptor A1 = target: T2, Adenosine receptor A1 (Rattus norvegicus, UniProt P25099); assay: biochemical
T2 sequence (P25099 whole entry): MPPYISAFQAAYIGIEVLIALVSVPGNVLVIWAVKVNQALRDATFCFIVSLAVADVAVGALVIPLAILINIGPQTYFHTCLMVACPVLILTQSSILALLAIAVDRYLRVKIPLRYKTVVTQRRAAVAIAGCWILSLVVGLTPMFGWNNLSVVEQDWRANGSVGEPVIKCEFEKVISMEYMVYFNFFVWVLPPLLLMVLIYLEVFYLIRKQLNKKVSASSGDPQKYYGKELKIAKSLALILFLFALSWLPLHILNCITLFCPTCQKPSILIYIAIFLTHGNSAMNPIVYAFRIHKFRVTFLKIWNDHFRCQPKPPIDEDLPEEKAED
Description: Binding affinity at adenosine A1 receptor from rat brain membranes by [3H]N6-cyclohexyladenosine displacement.

Adenosine A2 receptor [2] = target: T1, Adenosine A2 receptor; assay: Binding affinity at adenosine A2 receptor from rat striatal membranes by [3H]NECA displacement.

Ki (Adenosine A2 receptor [1]) [nM] | Ki (Adenosine receptor A1) [nM] | Ki (Adenosine A2 receptor [2]) [nM] | SMILES
62 | 229 |  | Cc1cccc(C)c1C(CNc1ncnc2c1ncn2C1O[C@H](CO)[C@@H](O)[C@H]1O)c1ccccc1 (some centres not stated)
116 |  |  | Nc1nc(Nc2ccccc2)nc2c1ncn2[C@@H]1O[C@H](CO)[C@@H](O)[C@H]1O
18.8 | 9.3 |  | Cc1cccc(C(CNc2ncnc3c2ncn3C2O[C@H](CO)[C@@H](O)[C@H]2O)c2cccc(C)c2)c1 (some centres not stated)
 | 18.4 |  | OC[C@H]1OC(n2cnc3c(NCC(c4ccccc4)c4cc(Cl)cc(Cl)c4)ncnc32)[C@H](O)[C@@H]1O (some centres not stated)
19 | 61 |  | OC[C@H]1OC(n2cnc3c(NCC(c4ccccc4)c4c(Cl)cccc4Cl)ncnc32)[C@H](O)[C@@H]1O (some centres not stated)
 | 207 | 5.6 | CCNC(=O)[C@H]1OC(n2cnc3c(NCC(c4cc(OC)cc(OC)c4)c4ccccc4C)ncnc32)[C@H](O)[C@@H]1O (some centres not stated)
6 | 2.6 |  | OC[C@H]1OC(n2cnc3c(NCC(c4cccc(Cl)c4)c4cccc(Cl)c4)ncnc32)[C@H](O)[C@@H]1O (some centres not stated)
6.1 | 30.2 |  | COc1cc(OC)cc(C(CNc2ncnc3c2ncn3C2O[C@H](CO)[C@@H](O)[C@H]2O)c2ccccc2)c1 (some centres not stated)
 | 1010 | 43 | CNC(=O)[C@H]1OC(n2cnc3c(NCC(c4cc(OC)cc(OC)c4)c4ccccc4C)ncnc32)[C@H](O)[C@@H]1O (some centres not stated)
19.5 | 140 |  | COc1cc(OC)cc(C(CNc2ncnc3c2ncn3C2O[C@H](CO)[C@@H](O)[C@H]2O)c2c(C)cccc2C)c1 (some centres not stated)

SMILES | Ki (Adenosine A2 receptor [1]) [nM] | Ki (Adenosine receptor A1) [nM] | Ki (Adenosine A2 receptor [2]) [nM]
OC[C@H]1O[C@@H](n2cnc3c(NCc4cccc5ccccc45)ncnc32)[C@H](O)[C@@H]1O | 9.4 |  | 
COc1cc(OC)cc(C(CNc2ncnc3c2ncn3[C@@H]2O[C@H](CO)[C@@H](O)[C@H]2O)c2ccccc2C)c1 (stereo in doubt; 16) | 4.4 | 142 | 
COc1cc(OC)cc(C(CNc2ncnc3c2ncn3C2O[C@H](C(=O)NC3CC3)[C@@H](O)[C@H]2O)c2ccccc2C)c1 (some centres not stated) |  | 232 | 8.7
COc1cc(OC)cc(C(CNc2ncnc3c2ncn3[C@@H]2O[C@H](CO)[C@@H](O)[C@H]2O)c2ccccc2C)c1 (single isomer, unassigned) | 3.1 | 118 | 
COc1cc(OC)cc(C(CNc2ncnc3c2ncn3[C@@H]2O[C@H](CO)[C@@H](O)[C@H]2O)c2ccccc2C)c1 (single isomer, unassigned; (+)) | 6.2 | 188 | 
